Test results taken from paper PMC7947296, “p-Terphenyls From Aspergillus sp. GZWMJZ-055: Identification, Derivation, Antioxidant and α-Glycosidase Inhibitory Activities” (Frontiers in Microbiology, 2021).
Where “and” joins values, the source holds several entries; their conditions need not be identical. Identical values can stand only once.

Key:
[1] = Oxygen radical absorbance capacity (ORAC) assay; conditions: trolox equivalents; tested at 6.25 μM (compounds 4–7), 12.5 μM (1–3, 8–16), 25.0 μM (17–25); PBS pH 7.4, 37°C
Description: The anti-oxidative activity of compounds was evaluated by ORAC assay ([Huang et al., 2002]) that was carried out mainly by using 2,2′-azobis(2-amidinopropane) dihydrochloride (AAPH, 153.0 μM), fluorescein (FL, 81.6 nM), testing compounds, and trolox as a positive control, all of which were dissolved in phosphate buffer solution (PBS, 75 mM, pH 7.4). The concentrations were 6.25 μM for compounds 4–7 and trolox, 12.5 μM for compounds 1–3, 8–16 and trolox, and 25.0 μM for compounds 17–25 and trolox, respectively (Supplementary Figure 36). In short, each 25 μL of testing compounds, blank (PBS), negative (PBS) and trolox, and 150 μL of FL were added in each well and incubated at 37°C for 10 min. Each 25 μL of AAPH was then added to the testing compounds, blank and trolox groups, and 25 μL of PBS was added to the negative group. Fluorescence intensity of each well was measured one time every 1 min for 90 cycles using a Fluoroskan Ascent FL plate-reader (Thermo Scientific Varioskan LUX) at excitation of λ 485 nm and emission of λ 530 nm. The relative fluorescence intensity f was equaled to the ratio of the absolute fluorescence reading to the initial fluorescence reading, and the net area under curve (AUC) was obtained by subtracting the AUC of the blank from that of the compound. The AUC was calculated as 0.5 + f1 +… fi +… + f89 + 0.5 × f90, in which fi means the ratio of fluorescence reading at time i to the initial fluorescence reading. The final ORAC values were calculated as micromole of trolox equivalents per micromole of the compound (μmole TE/μmole) by using a regression equation between the trolox concentration and the net area under the FL decay curve. That is, the relative ORAC value = (AUCcompound – AUCblank)/(AUCtrolox – AUCblank).

[2] = Cytotoxic effects on caco-2 cells by CTG assay; format: cell-based; conditions: human, 72 h incubation, read-out: inhibitory rate (cytotoxicity to caco-2 cells)
Description: The cytotoxic effects on the coca-2 cells were evaluated by the CTG assay ([Elisia and Kitts, 2008]; [Wang et al., 2019]). Briefly, coca-2 cells were seeded in 96-well plates at a density of 2 × 10^3 cells/well and treated with the final concentration of 1.0 μM of the compounds. After 72 h incubation, 100 μL of CTG solution (Promega) was added into each well. The luminescence value was tested by using a microplate reader (BioTek Synergy H1) after staying at rt for 10 min.

[3] = DPPH radical-scavenging assay; conditions: DPPH 0.15 mM in MeOH, 30-min incubation in the dark at rt, absorbance 517 nm
Description: The anti-oxidative activity of compounds was also evaluated by 2,2-diphenyl-1-picrylhydrazyl (DPPH) radical-scavenging assay ([Wang et al., 2007]). The experiment was divided into the following five groups, blank (methanol, MeOH), sample (mix compound and DPPH solution), background (pure compound solution), negative (pure DPPH solution), and positive [mix vitamin C (VC) and DPPH solution] controls. DPPH (0.15 mM), compounds (1–100 μM), and VC (1–100 μM) that was regarded as a compound sample in the following procedures all were dissolved in MeOH. Each 160 μL of MeOH was placed in negative control and blank groups, while each 160 μL of testing compounds or VC was placed in sample and background groups. Then, MeOH (each 40 μL) was, respectively, added to blank and background groups, while 40 μL of DPPH was, respectively, added to negative, positive, and sample controls. After 30-min incubation in the dark at rt, the decrease in DPPH radical concentration was monitored by measuring the absorbance at λ 517 nm with a microplate reader (Multiskan Spectrum, Thermo Scientific Varioskan LUX). The DPPH radical-scavenging rate was calculated as:
Scavenging rate (%)=[(Anegative-Ablank)-(Asample-Abackground)]/(Anegative-Ablank)×100%.

[4] = target: α-glucosidase from Saccharomyces cerevisiae (Saccharomyces cerevisiae, UniProt P53341); assay: biochemical;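 note: 15 min preincubation at 37 °C, then 30 min with PNPG substrate at 37 °C, inhibition computed from absorbance versus drug-free blank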
α-glucosidase from Saccharomyces cerevisiae, sequence (P53341 whole entry): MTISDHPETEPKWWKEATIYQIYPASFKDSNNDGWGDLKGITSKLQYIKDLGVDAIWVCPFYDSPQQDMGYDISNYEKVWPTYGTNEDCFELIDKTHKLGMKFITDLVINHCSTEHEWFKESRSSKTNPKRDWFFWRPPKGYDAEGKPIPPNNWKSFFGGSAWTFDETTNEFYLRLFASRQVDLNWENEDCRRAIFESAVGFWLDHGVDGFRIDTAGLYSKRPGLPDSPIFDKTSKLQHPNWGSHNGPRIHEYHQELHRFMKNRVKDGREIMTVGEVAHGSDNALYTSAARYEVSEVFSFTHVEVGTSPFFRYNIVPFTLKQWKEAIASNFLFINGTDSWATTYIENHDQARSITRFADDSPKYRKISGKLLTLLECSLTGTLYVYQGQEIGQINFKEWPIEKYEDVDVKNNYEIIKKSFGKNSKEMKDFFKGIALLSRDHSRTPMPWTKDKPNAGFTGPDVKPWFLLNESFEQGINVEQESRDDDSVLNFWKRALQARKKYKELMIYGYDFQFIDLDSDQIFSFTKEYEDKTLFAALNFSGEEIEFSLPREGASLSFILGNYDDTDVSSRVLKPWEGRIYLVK
Description: After incubation for 15 min at 37°C, 20 μL of PNPG solution was added to each well of testing groups and further incubated at 37°C for 30 min. Finally, 80 μL of Na2CO3 solution was added to each well to stop the reaction and the absorbance was measured by a microplate reader (Multiskan Spectrum, Thermo Scientific Varioskan LUX) at λ 405 nm.

Row | SMILES | ORAC (μMole TE/μMole) [1] | inhibition at 72 h, 1 µM [2] | IC50 [3] | IC50 [4]
1 | COc1c(-c2ccc(O)c(O)c2)cc(OC)c2c1oc1cc(O)c(O)cc12 [Compound 16, candidusin B] | 2.0 ± 0.06 μMole TE/μMole | 2.7% | 3.2 ± 0.1 µM | 7.9 ± 0.3 µM
2 | COc1cc(-c2ccc(O)c(CC=C(C)C)c2)c(OC)c(O)c1-c1ccc(O)c(O)c1 [Compound 12, prenylterphenyllin A] | 1.4 ± 0.01 μMole TE/μMole |  | 1.6 ± 0.02 µM | 64.4 ± 1.2 µM
3 | COc1cc(-c2ccccc2)c(OC)c(O)c1-c1ccc(O)cc1 [Compound 8, 4″-deoxyterphenyllin] | 0.5 ± 0.01 μMole TE/μMole |  | 57.8 ± 0.8 µM | 130 ± 3.5 µM
4 | COc1cc(-c2ccccc2)c(OC)c(OC)c1-c1ccc(O)cc1 [Compound 3, 4″-deoxy-2′-methoxyterphenyllin] | 2.1 ± 0.5 μMole TE/μMole |  | > 100 µM | > 500 µM
5 | COc1cc(-c2ccc(OC(C)=O)c(OC(C)=O)c2)c(OC)c(OC(C)=O)c1-c1ccc(OC(C)=O)c(OC(C)=O)c1 [Compound 25] | 1.7 ± 0.07 μMole TE/μMole |  | 11 ± 0.1 µM | > 500 µM
6 | COc1cc(-c2ccc(OC(C)=O)cc2)c(OC)c(OC(C)=O)c1-c1ccc(OC(C)=O)cc1 [Compound 23] | 0.1 ± 0.01 μMole TE/μMole |  | > 100 µM | > 500 µM
7 | COc1cc(-c2ccc(O)cc2)c(OC)c(O)c1-c1ccc(O)c(O)c1 [Compound 6, 3-hydroxyterphyllin] | 5.7 μMole TE/μMole and 5.7 ± 0.3 μMole TE/μMole | 0.2% | 1.4 ± 0.01 µM | 10.9 ± 1.3 µM
8 | COc1cc(-c2ccc(O)cc2)c(O)c(O)c1-c1ccc(O)cc1 [Compound 4, 5′-methoxy-[1,1′:4′,1″-terphenyl]-2′,3′,4,4″-tetraol] | 6.8 μMole TE/μMole and 6.8 ± 0.05 μMole TE/μMole |  | 1.7 ± 0.02 µM | 5.9 ± 0.6 µM
9 | COc1cc(-c2ccc(O)cc2)c(OC)c(O)c1-c1ccccc1 [Compound 2, 4-deoxyterphenyllin] | 1.2 ± 0.09 μMole TE/μMole |  | > 100 µM | 239 ± 5.9 µM
10 | COc1c(-c2ccc(O)cc2)cc(OC)c2c1oc1cc(O)c(O)cc12 [Compound 15, candidusin A] | 2.1 ± 0.06 μMole TE/μMole | 20.5% | 3.6 ± 0.06 µM | 13.1 ± 0.2 µM
11 | O=C1O[C@H]([C@@H](O)CO)C(O)=C1O [VC, vitamin C, reference compound] |  |  | 2.8 ± 0.03 µM | 
12 | COc1c(-c2ccccc2)cc(OC)c2c1oc1cc(O)c(O)cc12 [Compound 14, 4″-deoxycandidusin A] | 0.4 ± 0.06 μMole TE/μMole |  | 4 ± 0.2 µM | 128 ± 2.3 µM
13 | COc1cc(-c2c(OC)cc(-c3ccc(O)cc3)c(OC)c2O)ccc1OCC=C(C)C [Compound 13, 3-methoxyterprenin] | 0.4 ± 0.07 μMole TE/μMole |  | > 100 µM | 152 ± 9.6 µM
14 | O=C1C=C(c2ccc(O)cc2)C(=O)C(O)=C1c1ccc(O)c(O)c1 [Compound 21] | 3.9 ± 0.1 μMole TE/μMole | 1.2% | 1.6 ± 0.04 µM | 4 ± 0.08 µM
15 | COc1cc(-c2ccc(O)cc2)c(OC)c(O)c1-c1ccc(O)cc1 [Compound 5, terphenyllin] | 6.0 μMole TE/μMole and 6.0 ± 0.09 μMole TE/μMole | 0.4% | 10.9 ± 0.3 µM | 2.8 ± 0.2 µM
16 | O=C1C=C(c2ccc(O)c(O)c2)C(=O)C(O)=C1c1ccc(O)c(O)c1 [Compound 22] | 2.8 ± 0.3 μMole TE/μMole |  | 1.7 ± 0.02 µM | 10.1 ± 0.1 µM
17 | COc1cc(-c2ccc(O)cc2)c(OC)c(OC)c1-c1ccc(O)cc1 [Compound 10, 3′-O-methylterphenyllin] | 0.5 ± 0.03 μMole TE/μMole |  | > 100 µM | > 500 µM
18 | Oc1ccc(-c2cc(O)c(-c3ccc(O)cc3)c(O)c2O)cc1 [Compound 17] | 4.8 μMole TE/μMole and 4.8 ± 0.3 μMole TE/μMole |  | 5.3 ± 0.06 µM | 25.1 ± 0.7 µM
19 | COc1cc(-c2ccccc2)c(OC)c(O)c1-c1ccc(O)c(O)c1 [Compound 9, 4″-deoxy-3-hydroxyterphenyllin] | 0.5 ± 0.06 μMole TE/μMole |  | 1.9 ± 0.04 µM | 464 ± 23.6 µM
20 | COc1cc(-c2ccc(OC(C)=O)cc2)c(OC)c(OC(C)=O)c1-c1ccc(OC(C)=O)c(OC(C)=O)c1 [Compound 24] | 0.8 ± 0.07 μMole TE/μMole |  | 37.8 ± 0.1 µM | > 500 µM
21 | Oc1ccc(-c2cc(O)c(-c3ccc(O)c(O)c3)c(O)c2O)cc1O [Compound 19] | 2.6 ± 0.1 μMole TE/μMole |  | 1.8 ± 0.04 µM | 19.4 ± 0.1 µM
22 | COc1cc(-c2c(OC)cc(-c3ccccc3)c(OC)c2O)ccc1OCC=C(C)C [Compound 1, 3-O-methyl-4″-deoxyterprenin] | 1.0 ± 0.04 μMole TE/μMole |  | > 100 µM | > 500 µM
23 | O=C1C=C(c2ccc(O)cc2)C(=O)C(O)=C1c1ccc(O)cc1 [Compound 20] | 6.1 μMole TE/μMole and 6.1 ± 0.2 μMole TE/μMole | 0.4% | 5.9 ± 0.08 µM | 8.9 ± 0.4 µM
24 | COc1cc(-c2ccccc2)c(OC)c(O)c1-c1ccc(O)c(CC=C(C)C)c1 [Compound 11, 4″-deoxyprenylterphenyllin] | 1.2 ± 0.5 μMole TE/μMole |  | 1.6 ± 0.01 µM | 34.4 ± 1.1 µM
25 | Oc1ccc(-c2cc(O)c(-c3ccc(O)c(O)c3)c(O)c2O)cc1 [Compound 18] | 3.7 ± 0.1 μMole TE/μMole |  | 3.7 ± 0.07 µM | 25 ± 0.8 µM
26 | COc1cc(-c2ccc(O)c(O)c2)c(OC)c(O)c1-c1ccc(O)c(O)c1 [Compound 7, 3,3″-dihydroxyterphyllin] | 4.5 μMole TE/μMole and 4.5 ± 0.4 μMole TE/μMole | 0.5% | 1.1 ± 0.03 µM | 18.3 ± 0.9 µM
